melting point [°C] | SMILES
114 | Cc1nc(Nc2ccc(F)cc2)nc(Cl)c1C
138 to 142 | Cc1cccc(C(=O)Nc2ccc(C(=O)N3Cc4ccccc4Cc4ccccc43)cc2)c1C
> 300 | N#Cc1ccc(C(=O)N2CCc3[nH]c4c(cnc5cc(Cl)ccc54)c3C2)cc1
115 to 118 | CCOC(=O)/C=C/c1c(CC)cnc2c(NC(=O)c3c(Cl)cccc3Cl)cccc12
273 to 274 | Cc1nnc(-c2sc(N3CCN(Cc4ccc(C(F)(F)F)cc4)C3=O)nc2C)[nH]1
220 | Cn1cnnc1C(N)(c1ccc(Cl)cc1)c1ccc2c(c1)c(-c1cccc(Cl)c1)nc1nnnn12 (stereo not given)
145 to 147 | C=C(C)COc1ccc2c(=O)c(C)c(-c3ccccc3)oc2c1C(=O)C=Cc1ccccc1
218 to 219 | Cc1cc(C)c(-n2c(C)cc(C)c(C#N)c2=O)cc1N
77 to 78 | CC1C(=O)N(c2ccccc2)c2ccccc21 (stereo not given)
179 to 181 | CCOCc1nc2c(N)nc(C)c(C)c2n1CCNC(=O)N1CCOCC1
165 to 167 | COc1ccc2c(O)c(C(=O)NCCO)nc(Cl)c2c1
178 to 179 | COC(=O)c1cc(C(=O)O)cc(-n2cccc2)c1
92 to 93 | COC(=O)c1ccc(F)cc1C#N
232 to 233 | O=C(Cl)c1cc2[nH]c3cc(Cl)ccc3c2o1
180 to 185 | Cc1nc2c(-c3cccc(N4CCN(C5CCN(C)CC5)CC4)c3)cnn2c(N)c1-c1cccc(Cl)c1
125 to 126 | Cn1cc(C#N)cc1C=O
142 to 145 | Cc1ccc(Cl)cc1S(N)(=O)=O
314 to 316 | Cc1ccc(-c2nc3c([nH]c(=O)c4ccccc43)s2)cc1
247 to 249 | CCOC(=O)c1ccc2nc(NC)[nH]c2c1
121 to 123 | CCOC(=O)c1c(O)c2cccnc2n(CCc2ccccc2)c1=O
110 to 111 | CCOC(OCC)c1cc(Nc2ccc(OC)cc2)c(F)c(-c2ccc(Cl)cc2)n1
200 to 203 | COc1ccc(-c2csc(Nc3cc4ccccc4cn3)n2)cc1OC
81 to 82 | CCOC(=O)c1cnc2cc(Cl)ccc2c1Cl
211 to 213 | CCn1c(=O)c(C(=O)NN)c(O)c2ccc(C)nc21
85 to 87 | CCOC(=O)c1[nH]c(C)cc1N

melting point [°C] | SMILES
180 | CC1(C)c2ccccc2N2Cc3cc([N+](=O)[O-])ccc3OC21C (stereo not given)
56 to 58 | CN(C)Cc1ccccc1Sc1ccc(F)cc1N
83 to 85 | COC(=O)Cc1ccc2c(c1)C(C)(C)CCC2(C)C
170 | CC(C)(C)OC(=O)NC1C(=O)N2C(C(=O)OCc3ccc([N+](=O)[O-])cc3)=C(S)SCC12 (mixture of isomers)
100 to 103 | Cc1ccc(S(=O)(=O)OCC2Cc3c(F)ccc(Br)c3O2)cc1 (stereo not given)
185 to 187 | CN(Cc1cc2ccccc2n1C)C(=O)/C=C/c1ccc(N2C(=O)CCC2=O)nc1
227 to 228 | Cc1c(C(=O)O)cnn1-c1nc(-c2cccc(C(F)(F)F)c2)cs1
168 to 173 | CC(C)(C)NC(=O)c1cnc(Cl)cc1-c1ccc(F)cc1
54 to 58 | COc1cc(OC)nc(Sc2nccc(-c3cccc(Cl)c3)c2C(=O)NS(C)(=O)=O)n1
> 300 | CCCn1c(=O)c(=O)[nH]c2cc([N+](=O)[O-])c(-n3ccc(=O)c([N+](=O)[O-])c3)cc21
141 to 142 | CCOC(=O)c1cc(-c2csc(C)n2)[nH]n1
163 to 165 | CC(C)(C)c1cc(C2N[C@H](C(=O)O)CS2)cc(C(C)(C)C)c1O (stereo not given in full)
285 to 286 | COc1cc(C(=O)NC2CC(C)(C)N(C)C(C)(C)C2)ccc1-c1nc2cc(Cl)c(Cl)cc2[nH]1
64 to 65 | C=CCON=C(CC)C1=C(O)CC(c2c(C)c(C)c3c(c2C)CC(C)(CC)C3)CC1=O (stereo not given)
266 to 268 | Cc1nc2c(O)cccc2c(=O)n1C1CCC(=O)NC1=O (stereo not given)
198 to 200 | O=c1cc(CBr)c2cc(O)ccc2o1
164 | N#CCOc1cc2c(cc1-c1ccc(F)cc1)NC(=O)CC(c1cccc(-n3ccnc3)c1)=N2
258 to 260 | Cc1cc(=O)c(OCc2ccccc2)c(C(=O)NC2CCCCC2)n1C
158 | CC(=O)c1nn(-c2c(Cl)cc(C(F)(F)F)cc2Cl)c(N)c1S(=O)(=O)c1ccc(Cl)cc1
177 to 179 | CC(C)(C)OC(=O)N1CCC(N2C(=O)OCc3cc(Cl)ccc32)CC1
186 to 188 | CC(=O)OCC1OC(n2cc(Cc3ccc4occc4c3)c3c(Cl)cccc32)C(OC(C)=O)C(OC(C)=O)C1OC(C)=O (stereo not given)
142 to 145 | CCC(=O)N1C(=O)c2cc(C)ccc2Oc2ncccc21
111 to 113 | Cc1cccc2oc3cc(Cl)ccc3c(=O)c12
178 to 179 | CCc1ccc2oc(-c3ccc(C=C4C(=O)C5(C)CCC4C5(C)C)cc3)nc2c1 (stereo not given)
228 to 230 | O=C1Nc2cc(Cl)cc(Cl)c2C1=O

More lines, now with the values behind:

SMILES | melting point [°C]
CCCCCCCCCCOc1cnc(-c2ccc(C#CCCCC(C)O)cc2)nc1 (stereo not given) | 82 to 83
CCCC[C@H](NC(=O)[C@H](CC(C)C)NC(=O)c1cccc(F)c1F)C(=O)CSCc1ccco1 | 120 to 122
COc1ccc(C(=O)[C@H]2CCCC[C@H]2C(=O)O)cc1OC1CCCC1 (relative stereo) | 120 to 121
O=C(Cc1ccccc1)NC1CN(C(C(=O)OCc2ccccc2)c2ccccc2)C1=O (stereo not given) | 96 to 98
O=C(Oc1ccc2c(c1)C13CCCCC1N(C2)N(C(=O)C1CC1)CC3)C1CC1 (single isomer, unassigned; (+)) | 144
COC(=O)CCC(=O)c1cc(NC(C)=O)ccc1OCC(O)CNC(C)(C)C (stereo not given) | 127 to 128
O=C(CCCN1CCC2(CC1)OC(c1ccccc1)c1ccccc12)c1ccc(F)cc1 (stereo not given) | 137 to 138
CCOC(=O)/C=C/C(C)(C)NC(=O)OC(C)(C)C | 40 to 41
O=C(NCCc1ccccc1CCl)c1ccc([N+](=O)[O-])cc1 | 126
CC(Cc1ccc(OCCCCCCCCCCCO)cc1)NCC(O)c1cccc(C(F)(F)F)c1 (stereo not given) | 45 to 50
COc1ccc(C(C)C)cc1-c1cc(C(=O)NC2CCN(C(=O)OC(C)(C)C)CC2)c(OCc2ccccc2)cc1OCc1ccccc1 | 168 to 170
COc1ccc(S(=O)(=O)N2Cc3ccccc3N(C(=O)c3cccc(C(F)(F)F)c3)CC2C(=O)O)cc1 (stereo not given) | 105 to 110
N#Cc1ccc(-c2ccc(I)cc2)cc1 | 162 to 168
NC(=O)c1cc(NCc2ccccc2)c([N+](=O)[O-])cc1[N+](=O)[O-] | 143 to 146
Oc1ccc2c(c1)COc1c-2cc2ccc(O)cc2c1-c1ccc(F)cc1 | 229 to 232
O=C(c1ccc(O)cc1)C12CC3CC(C1)CC(C(=O)c1ccc(O)cc1)(C3)C2 | 208 to 209
Brc1cc(C=Cc2scc3c2OCCO3)ccn1 | 127 to 129
CSC(=N[N+](=O)[O-])NCc1cnc(Cl)s1 | 162 to 165
CN1CCC23CC(=O)C=CC2C1Cc1cccc(Oc2nnnn2-c2ccccc2)c13 (stereo not given) | 172 to 174
COc1ccc(C(C(c2ccccc2)c2ccc(F)cc2)C(F)(F)F)cc1 (stereo not given) | 113 to 120
CS(=O)(=O)OCCN(CCOS(C)(=O)=O)c1cc(C(=O)O)c([N+](=O)[O-])cc1[N+](=O)[O-] | 200 to 210
O=C(c1cccc(O)c1)c1cccc(Cl)c1 | 104
CCNC(=C[N+](=O)[O-])NCCSCc1nccs1 | 115 to 116
CC(=O)N(c1cc([N+](=O)[O-])c(F)cc1Cl)S(=O)(=O)CCl | 183 to 187
CC1(C)CC(C)(O)C2CCC2(C)C1 (stereo not given) | 54 to 55

SMILES | melting point [°C]
CC(C(=O)O)c1ccc2onc(-c3ccc(Cl)cc3)c2c1 (stereo not given) | 137 to 139
O=C(CCC1CCN(C(=O)OCc2ccc([N+](=O)[O-])cc2)CC1)c1ccc2c(c1)CN1C(=O)c3ccccc3C1CC2 (stereo not given) | 179 to 181
CC1(S(=O)(=O)C2(C)C=CC=CC2O)C=CC=CC1O (stereo not given) | 95 to 97
CCCC(=O)NCCN1CCOc2ccc(OC)cc21 | 73 to 74
CC(=O)Nc1nc2c(c(=O)[nH]1)CCC(O)N2C(C)=O (stereo not given) | 202 to 205
CCCN(CCC)CC(=O)Nc1cccc2c1C(=O)c1c(NC(=O)CN(CCC)CCC)cccc1C2=O | 129 to 130
COc1cc2ncc(NC3CCCCC3)nc2cc1OC | 149 to 151
CCCCCCCCCCCCCCCCSCC(CNS(=O)(=O)CCCI)NC(=O)NC (stereo not given) | 70 to 71
COc1ccccc1S(=O)(=O)N(C)c1cccc2cc(C3=NCC(CC(=O)N4CCC(O)CC4)S3)[nH]c12 (stereo not given) | 166 to 167
CCCOc1ccccc1-c1nc(NCCCO)cc(=O)[nH]1 | 148
Nc1ncc(Cc2ccc3c(c2)CCCN3)c(N)n1 | 284 to 287
NC(=O)c1ncn(C2OC(CO)C(O)C2O)c1C(N)=O (stereo not given) | 224 to 226
CN1CCN(c2ccc(C#N)c3ccccc23)CC1 | 128 to 129
OCCN1CCC(Nc2nc3cncnc3n2Cc2ccc(F)cc2)CC1 | 159
Oc1ncc(-c2cccc(C(F)(F)F)c2)cn1 | 283 to 285
NP(=O)(O)CCc1ccccc1 | 226
CCCCOc1nc(N)c2[nH]c(=O)n(CCCN(CCCN3CCOCC3)Cc3cccc(CC(=O)OC)c3)c2n1 | 153
O=C(c1ccc(C(F)(F)F)cc1)c1cccc(O)c1 | 130
CCCCCCOc1ccc(C(=O)NCCN(O)C(N)=O)cc1 | 148 to 151
O=C(O)CCCN1CCN2c3ccccc3Cc3ccccc3C2C1 (stereo not given) | 104 to 105
CC(C)(CCl)C(=O)NO | 148 to 151
CCOC(=O)C1C(=O)C=C(c2ccc(OCC(=O)O)c(Cl)c2Cl)CC1c1ccccc1 (stereo not given) | 91
CC(Cc1ccc(F)cc1)(NC(=O)CN)c1ccc(F)cc1 (stereo not given) | 130 to 131
Cc1c(NC(=O)C(CSC(=O)C(C)(C)C)Cc2ccccc2)cccc1C(=O)O (stereo not given) | 117 to 120
CCCCC(=N)NC(=O)Nc1ccccc1OCc1ccccc1 | 145 to 147

Source: a melting point compilation (Tetko et al.; mined from patent text by program, amines drawn as free bases though some values may be those of a salt)
